Activity calls are given as the source filed them.
Assays:
[1] = molecular target: Luciferin 4-monooxygenase (Photinus pyralis, UniProt P08659); assay: Effect on firefly luciferase activity expressed in human HepG2 cells at low concentration after 5 hrs by luminescence assay; type: ADME, cell-based; details: hepg2, 5 h
[2] = molecular target: T1, Nuclear factor erythroid 2-related factor 2 (Homo sapiens) (UniProt Q16236); assay: Activation of Nrf2 (unknown origin) expressed in human HepG2 cells at 15 uM after 5 hrs by ARE-driven luciferase reporter gene assay relative to control; type: cell-based
T1 sequence (whole entry): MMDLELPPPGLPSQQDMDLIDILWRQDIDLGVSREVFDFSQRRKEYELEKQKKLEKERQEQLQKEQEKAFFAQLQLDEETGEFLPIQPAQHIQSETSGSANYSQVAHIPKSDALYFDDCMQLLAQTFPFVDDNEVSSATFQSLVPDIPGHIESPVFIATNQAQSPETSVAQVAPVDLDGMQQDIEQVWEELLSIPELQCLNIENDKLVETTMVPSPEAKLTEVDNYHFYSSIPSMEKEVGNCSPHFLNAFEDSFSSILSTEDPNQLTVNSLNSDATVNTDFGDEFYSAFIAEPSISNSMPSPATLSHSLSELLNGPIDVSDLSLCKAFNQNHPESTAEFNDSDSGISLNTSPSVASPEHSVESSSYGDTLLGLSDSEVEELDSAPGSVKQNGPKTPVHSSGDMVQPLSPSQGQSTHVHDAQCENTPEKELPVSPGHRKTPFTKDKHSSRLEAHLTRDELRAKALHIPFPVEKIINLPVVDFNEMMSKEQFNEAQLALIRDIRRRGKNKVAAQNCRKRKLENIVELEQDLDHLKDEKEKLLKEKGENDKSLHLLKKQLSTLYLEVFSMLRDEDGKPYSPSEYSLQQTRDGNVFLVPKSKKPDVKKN

Chain of Luciferin 4-monooxygenase (P08659 whole entry): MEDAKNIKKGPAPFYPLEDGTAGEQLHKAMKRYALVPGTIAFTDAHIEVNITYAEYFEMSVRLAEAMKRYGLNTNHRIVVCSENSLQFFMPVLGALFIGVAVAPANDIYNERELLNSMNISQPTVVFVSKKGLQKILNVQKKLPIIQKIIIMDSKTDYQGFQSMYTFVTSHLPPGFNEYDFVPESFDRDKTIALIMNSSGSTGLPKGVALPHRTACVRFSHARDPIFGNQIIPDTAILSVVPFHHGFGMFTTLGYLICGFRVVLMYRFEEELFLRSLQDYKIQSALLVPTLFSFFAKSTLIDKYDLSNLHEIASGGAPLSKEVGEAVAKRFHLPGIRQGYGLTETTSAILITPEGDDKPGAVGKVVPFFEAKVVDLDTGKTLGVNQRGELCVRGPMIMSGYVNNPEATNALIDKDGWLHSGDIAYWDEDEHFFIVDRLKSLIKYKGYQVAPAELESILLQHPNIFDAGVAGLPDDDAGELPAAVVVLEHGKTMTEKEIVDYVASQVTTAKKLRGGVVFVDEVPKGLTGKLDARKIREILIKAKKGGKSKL

Activity [2]	fold change (FC) [2]	Structure (SMILES)	Activity [1]
Active		COc1ccc(/C=C/C(=O)CC(=O)/C=C/c2ccc(OC)cc2)cc1	Non-Toxic
inactive		CN(C)c1ccc(/C=C/C(=O)CC(=O)/C=C/c2ccc(N(C)C)cc2)cc1	Non-Toxic
Active		O=C(/C=C/c1ccc(O)cc1)CC(=O)/C=C/c1ccc(O)cc1 [BISDEMETHOXYCURCUMIN]	Non-Toxic
	25.1	COc1cc(/C=C/C(=O)/C=C/c2ccc(O)c(OC)c2)ccc1O	Non-Toxic
inactive		COc1cc(/C=C2\CN(C)C/C(=C\c3cc(OC)c(OC)c(OC)c3)C2=O)cc(OC)c1OC	Non-Toxic
inactive		O=C(/C=C/c1ccccc1C(F)(F)F)/C=C/c1ccccc1C(F)(F)F	Non-Toxic
Active		O=C(/C=C/c1ccccc1Cl)/C=C/c1ccccc1Cl	Non-Toxic
inactive		COc1ccc(/C=C2\CCC/C(=C\c3ccc(OC)cc3OC)C2=O)c(OC)c1	Non-Toxic
	18.2	COc1cc(OC)c(OC)cc1/C=C/C(=O)/C=C/c1cc(OC)c(OC)cc1OC	Non-Toxic
inactive		COc1ccccc1/C=C1\CCC/C(=C\c2ccccc2OC)C1=O	Non-Toxic
Active		CC(C)c1ccc(/C=C2\CN(C)C/C(=C\c3ccc(C(C)C)cc3)C2=O)cc1	Non-Toxic
	22.1	COc1cc(/C=C2\CCC/C(=C\c3cc(OC)cc(OC)c3)C2=O)cc(OC)c1	Non-Toxic
Active		CN1C/C(=C\c2cccc(C(F)(F)F)c2)C(=O)/C(=C/c2cccc(C(F)(F)F)c2)C1	Non-Toxic
inactive		O=C(/C=C/c1cccc(Cl)c1)/C=C/c1cccc(Cl)c1	Non-Toxic
inactive		O=C(CCc1ccccc1)CCc1ccccc1	Non-Toxic
Active		COc1cccc(/C=C2\CCC/C(=C\c3cccc(OC)c3)C2=O)c1	Non-Toxic
inactive		O=C(/C=C/c1cccc([N+](=O)[O-])c1)CC(=O)/C=C/c1cccc([N+](=O)[O-])c1	Non-Toxic
Active		O=C(/C=C/c1ccccc1)C(Cc1ccccc1)(Cc1ccccc1)C(=O)/C=C/c1ccccc1	Non-Toxic
Active		COc1cc(/C=C/C(=O)CC(=O)/C=C/c2cc(OC)cc(OC)c2)cc(OC)c1	Non-Toxic
Active		O=C(/C=C/c1cccc(O)c1)CC(=O)/C=C/c1cccc(O)c1	Non-Toxic

Reference: ChEMBL document CHEMBL4138237, “Activation of anti-oxidant Nrf2 signaling by enone analogues of curcumin” (Eur J Med Chem, 2018)
